Assay results: patent publication US20240101572A1, “DIHYDROOXADIAZINONE COMPOUND AND PHARMACEUTICAL USE THEREOF” (Japan Tobacco Inc., priority 2022, published 2024)
Like-named read-outs stand apart in the source and are kept apart here.

Columns and labels:
full-length human PLD2 = full-length human PLD2 (Homo sapiens (Human), UniProt O14939); experiment: Evaluation of human PLD2 enzyme inhibitory activity (Amplex Red / choline oxidase fluorescence); assay type: biochemical
Method in brief: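 Released choline was read by Amplex Red fluorescence coupled to choline oxidase and HRP after a 60 min room-temperature reaction. Substrate was diheptanoyl phosphatidylcholine, added as a 6 mmol/L solution, and enzyme was FLAG-tagged full-length human PLD2 from Expi293F, added as a 6 nmol/L solution. Buffer was 50 mM HEPES pH 7.5 with 5% final DMSO.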

full-length human PLD1 = full-length human PLD1 (Homo sapiens (Human), UniProt Q13393); experiment: Evaluation of human PLD1 enzyme inhibitory activity (Amplex Red / choline oxidase fluorescence); assay type: biochemical
Method in brief: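 Fluorescence read-out couples choline to Amplex Red via choline oxidase and peroxidase after a 60 min room-temperature reaction. Enzyme: FLAG-tagged full-length human PLD1 from Expi293F cells, anti-FLAG purified; substrate diheptanoyl phosphatidylcholine; HEPES pH 7.5 assay buffer with 0.01% NP-40, 0.1% BSA, 5% DMSO final.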

[1] = full-length human PLD2 enzyme, read-out: PLD2 IC50
[2] = full-length human PLD1 enzyme, read-out: PLD1 IC50
[3] = column 2 of continuation tables 2-12 to 2-14, read-out: human PLD2 enzyme inhibitory activity IC50
[4] = column 1 of continuation tables 2-12 to 2-14, read-out: human PLD1 enzyme inhibitory activity IC50

Chain of full-length human PLD1 (Q13393 other isoform, or with tags, fused parts or gaps): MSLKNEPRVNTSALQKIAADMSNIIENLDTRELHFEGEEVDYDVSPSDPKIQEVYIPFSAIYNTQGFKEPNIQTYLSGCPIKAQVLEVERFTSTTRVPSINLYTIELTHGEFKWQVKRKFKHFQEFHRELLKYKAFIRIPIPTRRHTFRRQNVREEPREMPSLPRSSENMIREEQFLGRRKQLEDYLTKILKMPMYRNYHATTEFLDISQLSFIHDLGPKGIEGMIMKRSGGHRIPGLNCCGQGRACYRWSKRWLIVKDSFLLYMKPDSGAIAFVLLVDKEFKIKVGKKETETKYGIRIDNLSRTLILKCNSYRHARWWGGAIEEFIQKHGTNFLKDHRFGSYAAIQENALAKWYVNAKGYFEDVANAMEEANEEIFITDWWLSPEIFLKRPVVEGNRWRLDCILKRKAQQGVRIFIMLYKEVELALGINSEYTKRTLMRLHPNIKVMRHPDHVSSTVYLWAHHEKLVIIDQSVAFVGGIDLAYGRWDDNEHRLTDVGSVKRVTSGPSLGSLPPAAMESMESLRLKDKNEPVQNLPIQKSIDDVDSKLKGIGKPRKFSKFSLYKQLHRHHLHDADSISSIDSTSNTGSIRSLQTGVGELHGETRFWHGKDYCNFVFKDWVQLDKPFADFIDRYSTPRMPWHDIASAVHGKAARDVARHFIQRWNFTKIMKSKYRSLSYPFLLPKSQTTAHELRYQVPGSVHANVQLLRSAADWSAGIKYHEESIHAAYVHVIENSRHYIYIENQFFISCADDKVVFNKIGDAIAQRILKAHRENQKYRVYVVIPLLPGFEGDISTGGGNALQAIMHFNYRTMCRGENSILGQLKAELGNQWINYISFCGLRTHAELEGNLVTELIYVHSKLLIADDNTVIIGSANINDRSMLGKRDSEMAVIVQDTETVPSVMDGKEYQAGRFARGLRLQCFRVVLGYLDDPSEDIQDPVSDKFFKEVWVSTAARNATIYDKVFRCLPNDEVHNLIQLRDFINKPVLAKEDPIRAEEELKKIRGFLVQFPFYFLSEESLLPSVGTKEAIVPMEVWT
Chain of full-length human PLD2 (O14939 whole entry): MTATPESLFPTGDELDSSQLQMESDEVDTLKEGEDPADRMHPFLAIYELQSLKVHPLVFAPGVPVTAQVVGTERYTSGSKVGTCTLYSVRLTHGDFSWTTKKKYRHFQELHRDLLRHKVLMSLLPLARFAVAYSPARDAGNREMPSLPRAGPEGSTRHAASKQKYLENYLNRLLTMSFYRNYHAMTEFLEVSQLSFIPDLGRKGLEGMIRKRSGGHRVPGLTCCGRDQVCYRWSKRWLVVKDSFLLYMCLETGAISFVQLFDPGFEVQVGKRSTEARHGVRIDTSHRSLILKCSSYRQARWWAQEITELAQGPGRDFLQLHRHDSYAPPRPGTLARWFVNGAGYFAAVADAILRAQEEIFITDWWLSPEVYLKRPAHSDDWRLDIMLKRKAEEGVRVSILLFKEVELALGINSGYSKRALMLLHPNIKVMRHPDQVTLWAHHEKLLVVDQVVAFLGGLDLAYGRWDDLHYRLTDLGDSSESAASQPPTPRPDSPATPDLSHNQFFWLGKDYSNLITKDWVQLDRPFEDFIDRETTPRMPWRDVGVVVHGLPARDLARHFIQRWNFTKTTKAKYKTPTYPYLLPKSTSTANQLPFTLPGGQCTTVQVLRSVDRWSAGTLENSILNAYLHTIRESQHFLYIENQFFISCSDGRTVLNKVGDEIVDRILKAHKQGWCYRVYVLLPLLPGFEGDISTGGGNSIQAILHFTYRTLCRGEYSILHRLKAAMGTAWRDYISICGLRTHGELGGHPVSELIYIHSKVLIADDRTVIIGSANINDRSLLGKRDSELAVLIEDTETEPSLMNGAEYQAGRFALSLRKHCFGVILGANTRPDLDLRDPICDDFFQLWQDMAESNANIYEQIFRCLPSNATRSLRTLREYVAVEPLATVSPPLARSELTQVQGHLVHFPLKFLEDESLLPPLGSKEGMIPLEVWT

C[C@@H](CN1CCC2(CC1)OC(=O)NN=C2c1cc(C#N)ccc1Br)NC(=O)C1CCCO1 (mixture of isomers) [Example 2-048]
IC50 (full-length human PLD2; [1]): 1010 nM | IC50 (full-length human PLD1; [2]): 644 nM

CNC(=O)C(=O)N[C@@H](C)C[C@]1(C#N)CC[C@@]2(CC1)OC(=O)NN=C2c1cccc(C(F)(F)F)c1Br [Example 2-076]
IC50 (full-length human PLD2; [1]): < 10 nM | IC50 (full-length human PLD1; [2]): 11 nM

CNC(=O)C(=O)N[C@@H](C)CN1CCC2(CO1)OC(=O)NN=C2c1cc(C#N)ccc1Br (some centres unmarked) [Example 2-025]
IC50 (full-length human PLD2; [1]): 205 nM | IC50 (full-length human PLD1; [2]): 219 nM

C[C@@H](C[C@H]1CC[C@]2(CC1)OC(=O)NN=C2c1ccc(F)cc1Br)NC(=O)C(F)Cl (mixture of isomers) [Example 278]
IC50 (full-length human PLD2; [1]): 1180 nM | IC50 (full-length human PLD1; [2]): 246 nM

Cc1cc(C(=O)N[C@@H](C)CN2CCC3(CC2)OC(=O)NN=C3c2ccc(C#N)cc2Br)on1 [Example 2-062]
IC50 (full-length human PLD2; [1]): 25 nM | IC50 (full-length human PLD1; [2]): 25 nM

C[C@@H](C[C@]1(C#N)CC[C@@]2(CC1)OC(=O)NN=C2c1cc(C#N)ccc1Br)NC(=O)c1cc(Cl)no1 [Example 2-068]
IC50 (full-length human PLD2; [1]): < 10 nM | IC50 (full-length human PLD1; [2]): < 10 nM

CNC(=O)C(=O)N[C@@H](C)C[C@H]1CC[C@]2(CC1)OC(=O)NN=C2c1cnc(N2CC(C(F)F)C2)cc1C [Example 227]
IC50 (full-length human PLD2; [1]): < 10 nM | IC50 (full-length human PLD1; [2]): 19 nM

Cc1cc(C(=O)N[C@@H](C)CN2CCC3(CC2)OC(=O)NN=C3c2cc(C#N)ccc2Br)[nH]n1 [Example 312]
IC50 (full-length human PLD2; [1]): < 10 nM | IC50 (full-length human PLD1; [2]): 29 nM

CNC(=O)C(=O)N[C@@H](C)CN1CCC2(CC1)OC(=O)NN=C2c1ccc(C#N)cc1C(F)(F)F [Example 327]
IC50 (full-length human PLD2; [1]): 51 nM | IC50 (full-length human PLD1; [2]): 110 nM

COc1cc(C)c(C2=NNC(=O)O[C@]23CC[C@@H](C[C@H](C)NC(=O)N2CCc4cccnc4C2)CC3)cn1 [Example 258]
IC50 (full-length human PLD2; [1]): 249 nM | IC50 (full-length human PLD1; [2]): 186 nM

CNC(=O)C(=O)N[C@@H](C)C[C@H]1CC[C@]2(CC1)OC(=O)NN=C2c1ncccc1Br [Example 2-013]
IC50 (full-length human PLD2; [1]): < 10 nM | IC50 (full-length human PLD1; [2]): 12 nM

Cc1cc(C(=O)N[C@@H](C)C[C@H]2CC[C@]3(CC2)OC(=O)NN=C3c2cccc(OC(F)F)c2Br)[nH]n1 [Example 307]
IC50 (full-length human PLD2; [1]): < 10 nM | IC50 (full-length human PLD1; [2]): 13 nM

COc1cc(C)c(C2=NNC(=O)O[C@]23CC[C@@H](C[C@H](C)NC(=O)c2cc(C)n[nH]2)CC3)cn1 [Example 160]
IC50 (full-length human PLD2; [1]): 17 nM | IC50 (full-length human PLD1; [2]): 26 nM

C[C@@H](C[C@H]1CC[C@]2(CC1)OC(=O)NN=C2c1ccc(F)cc1Br)NC(=O)c1cn(C)nn1 [Example 76]
IC50 (full-length human PLD2; [1]): 17 nM | IC50 (full-length human PLD1; [2]): 17 nM

C[C@@H](C[C@H]1CC[C@]2(CC1)OC(=O)NN=C2c1ccc(F)cc1Br)NC(=O)CC#N [Example 41]
IC50 (full-length human PLD2; [1]): 500 nM | IC50 (full-length human PLD1; [2]): 229 nM

C[C@@H](CN1CCC2(CC1)OC(=O)NN=C2c1ccc(F)cc1Cl)NC(=O)c1cc2cc(F)ccc2o1 [Example 91]
IC50 (full-length human PLD2; [1]): 15 nM | IC50 (full-length human PLD1; [2]): 23 nM

COc1cc(C)c(C2=NNC(=O)O[C@]23CC[C@@H](C[C@H](C)NC(=O)NCc2ccccn2)CC3)cn1 [Example 261]
IC50 (full-length human PLD2; [1]): 313 nM | IC50 (full-length human PLD1; [2]): 168 nM

CNC(=O)C(=O)N[C@@H](C)C[C@H]1CC[C@]2(CC1)OC(=O)NN=C2c1ccc(C(C)(C)O)cc1Br [Example 96]
IC50 (full-length human PLD2; [1]): < 10 nM | IC50 (full-length human PLD1; [2]): 18 nM

Cc1cc(C(=O)N[C@@H](C)C[C@H]2CC[C@]3(CC2)OC(=O)NN=C3c2cnc(N3CC(F)(F)C3)cc2C)[nH]n1 [Example 273]
IC50 (full-length human PLD2; [1]): < 10 nM | IC50 (full-length human PLD1; [2]): 19 nM

C[C@@H](CN1CCC2(CC1)OC(=O)NN=C2c1ccc(F)cc1Br)NC(=O)c1cnn(C)c1 [Example 254]
IC50 (full-length human PLD2; [1]): < 10 nM | IC50 (full-length human PLD1; [2]): 29 nM

C[C@@H](CN1CCC2(CC1)OC(=O)NN=C2c1cc(C#N)ccc1Br)NC(=O)/C=C/C(=O)ON1C(=O)CCC1=O [Example 2-042]
IC50 (full-length human PLD2; [1]): 383 nM | IC50 (full-length human PLD1; [2]): 3020 nM

[2H]C([2H])([2H])NC(=O)C(=O)N[C@@H](C)C[C@]1(OC)CC[C@@]2(CC1)OC(=O)NN=C2c1ccc(C#N)cc1Br [Example 2-130]
IC50 (full-length human PLD2; [3]): < 10 nM | IC50 (full-length human PLD1; [4]): 32 nM

Cc1cc(C(=O)N[C@@H](C)C[C@H]2CC[C@]3(CC2)OC(=O)NN=C3c2cnc(N3CCOCC3)cc2Cl)[nH]n1 [Example 226]
IC50 (full-length human PLD2; [1]): < 10 nM | IC50 (full-length human PLD1; [2]): 18 nM

C[C@@H](CN1CCC2(CC1)OC(=O)NN=C2c1ccc(C(N)=O)cc1Br)NC(=O)c1cnn(C)c1 [Example 337]
IC50 (full-length human PLD2; [1]): 28 nM | IC50 (full-length human PLD1; [2]): 74 nM

CNC(=O)C(=O)N[C@@H](C)C[C@H]1CC[C@]2(CC1)OC(=O)NN=C2c1cnc(OCC(F)(F)F)cc1C [Example 170]
IC50 (full-length human PLD2; [1]): < 10 nM | IC50 (full-length human PLD1; [2]): 19 nM

CNC(=O)C(=O)N[C@@H](C)C[C@H]1CC[C@]2(CC1)OC(=O)NN=C2c1cnc(N2CC(C)C2)cc1C [Example 182]
IC50 (full-length human PLD2; [1]): < 10 nM | IC50 (full-length human PLD1; [2]): 19 nM

COc1cc(C)c(C2=NNC(=O)O[C@]23CC[C@@H](C[C@H](C)NC(=O)N2CCn4ncnc4C2)CC3)cn1 [Example 257]
IC50 (full-length human PLD2; [1]): 215 nM | IC50 (full-length human PLD1; [2]): 262 nM

CNC(=O)C(=O)N[C@@H](C)C[C@H]1CC[C@]2(CC1)OC(=O)NN=C2c1ccc(C#N)cc1Br [Example 57, N^1—((S)-1-(cis-5-(2-bromo-4-cyanophenyl)-2-oxo-1-oxa-3,4-diazaspiro[5.5]undec-4-en-9-yl)propan-2-yl)-N^2-methyloxamide]
IC50 (full-length human PLD2; [1]): < 10 nM | IC50 (full-length human PLD1; [2]): 16 nM

C[C@@H](CN1CCC2(CC1)OC(=O)NN=C2c1cc(C#N)ccc1Br)NC(=O)/C=C/C(F)(F)F [Example 2-003]
IC50 (full-length human PLD2; [1]): 12 nM | IC50 (full-length human PLD1; [2]): 38 nM

C[C@@H](C[C@H]1CC[C@]2(CC1)OC(=O)NN=C2c1cc(C(C)(C)O)ccc1Br)NC(=O)C(=O)NC1CC1 [Example 2-045]
IC50 (full-length human PLD2; [1]): < 10 nM | IC50 (full-length human PLD1; [2]): 18 nM

CNC(=O)C(=O)N[C@@H](C)C[C@H]1CC[C@]2(CC1)OC(=O)NN=C2c1cnc(N2CCC(F)(F)CC2)cc1Cl [Example 274]
IC50 (full-length human PLD2; [1]): < 10 nM | IC50 (full-length human PLD1; [2]): 17 nM

[2H]C([2H])([2H])NC(=O)C(=O)N[C@@H](C)C[C@]1(OC)CC[C@@]2(CC1)OC(=O)NN=C2c1cc(F)ccc1Br [Example 2-131]
IC50 (full-length human PLD2; [3]): < 10 nM | IC50 (full-length human PLD1; [4]): 15 nM

CNC(=O)C(=O)N[C@@H](C)C[C@H]1CC[C@]2(CC1)OC(=O)NN=C2c1cnc(C(C)=O)cc1C [Example 193]
IC50 (full-length human PLD2; [1]): 46 nM | IC50 (full-length human PLD1; [2]): 55 nM

Cc1cc(C(=O)N[C@@H](C)C[C@H]2CC[C@]3(CC2)OC(=O)NN=C3c2ccc(F)cc2)[nH]n1 [Example 5]
IC50 (full-length human PLD2; [1]): 171 nM | IC50 (full-length human PLD1; [2]): 164 nM

[2H]C([2H])([2H])NC(=O)C(=O)N[C@@H](C)C[C@]1(OC)CC[C@@]2(CC1)OC(=O)NN=C2c1ccc(F)cc1Br [Example 2-135]
IC50 (full-length human PLD2; [3]): < 10 nM | IC50 (full-length human PLD1; [4]): 20 nM

Cc1cc(C(=O)N[C@@H](C)C[C@H]2CC[C@]3(CC2)OC(=O)NN=C3c2cc(OCC(F)(F)F)ccc2Br)[nH]n1 [Example 298]
IC50 (full-length human PLD2; [1]): < 10 nM | IC50 (full-length human PLD1; [2]): 15 nM

CNC(=O)C(=O)N[C@@H](C)C[C@H]1CC[C@]2(CC1)OC(=O)NN=C2c1cnc(OC)cc1C [Example 154]
IC50 (full-length human PLD2; [1]): 14 nM | IC50 (full-length human PLD1; [2]): 27 nM

CNC(=O)C(=O)N[C@@H](C)CN1CC[C@]2(C[C@@H]1C)OC(=O)NN=C2c1ccc(C#N)cc1Cl [Example 280]
IC50 (full-length human PLD2; [1]): 316 nM | IC50 (full-length human PLD1; [2]): 147 nM

C[C@@H](CC1CCC2(CC1)OC(=O)NN=C2c1ccncc1Br)NC(=O)c1cc2ccccc2o1 (mixture of isomers) [Example 122]
IC50 (full-length human PLD2; [1]): < 10 nM | IC50 (full-length human PLD1; [2]): < 10 nM

Cc1cc(C(=O)N[C@@H](C)C[C@H]2CC[C@]3(CC2)OC(=O)NN=C3c2cnc(N3C[C@H]4C[C@@H]3CO4)cc2Cl)[nH]n1 [Example 239]
IC50 (full-length human PLD2; [1]): < 10 nM | IC50 (full-length human PLD1; [2]): 18 nM
